Measurements from ChEMBL document CHEMBL5360618, “PepScaf: Harnessing Machine Learning with In Vitro Selection toward De Novo Macrocyclic Peptides against IL-17C/IL-17RE Interaction” (J Med Chem, 2023).
Positions of bridges follow the written chain, without caps; N, C: chain ends. Non-standard residues stand in square brackets, D forms with d. Residues, ends and D or L forms follow the SMILES beside them. Ala(imidazol-2-yl) = N[C@@H](Cc1ncc[nH]1)C(=O)O

biological target: T1, IL17-RE-IL-17C (Homo sapiens, UniProt Q8NFR9+Q9P0M4); experiment: Inhibition of IL-17C/IL-17RE interaction (unknown origin) incubated for 1.5 hrs by ELISA method; assay type: protein-complex assay
T1 sequence (Q9P0M4 whole entry): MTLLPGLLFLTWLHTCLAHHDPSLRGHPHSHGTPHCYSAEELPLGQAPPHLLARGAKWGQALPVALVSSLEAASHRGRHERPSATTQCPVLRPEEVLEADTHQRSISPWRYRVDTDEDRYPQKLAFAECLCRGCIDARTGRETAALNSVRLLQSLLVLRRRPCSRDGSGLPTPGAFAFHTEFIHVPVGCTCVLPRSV
T1 sequence (Q8NFR9 whole entry): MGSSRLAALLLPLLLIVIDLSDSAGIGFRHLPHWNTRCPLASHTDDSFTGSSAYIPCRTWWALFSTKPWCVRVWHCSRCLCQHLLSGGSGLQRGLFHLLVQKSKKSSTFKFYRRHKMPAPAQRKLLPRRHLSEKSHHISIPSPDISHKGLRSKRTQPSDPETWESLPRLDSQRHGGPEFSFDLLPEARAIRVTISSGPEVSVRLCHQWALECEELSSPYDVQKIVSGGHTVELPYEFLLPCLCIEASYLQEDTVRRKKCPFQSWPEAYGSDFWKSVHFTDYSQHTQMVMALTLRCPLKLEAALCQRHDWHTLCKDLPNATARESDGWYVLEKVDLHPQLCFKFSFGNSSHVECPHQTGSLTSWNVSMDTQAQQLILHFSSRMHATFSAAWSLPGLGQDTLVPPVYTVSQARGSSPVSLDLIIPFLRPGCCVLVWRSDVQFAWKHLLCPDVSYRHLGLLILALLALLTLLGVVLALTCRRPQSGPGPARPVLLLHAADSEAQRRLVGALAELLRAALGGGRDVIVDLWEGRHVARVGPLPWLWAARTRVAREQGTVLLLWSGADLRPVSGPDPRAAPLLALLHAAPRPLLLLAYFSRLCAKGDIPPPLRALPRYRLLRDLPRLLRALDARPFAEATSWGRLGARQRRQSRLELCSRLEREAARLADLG

Structure (SMILES)	IC50
CC(C)C[C@@H]1NC(=O)[C@H](CC(N)=O)NC(=O)CNC(=O)[C@H](Cc2ccc(O)cc2)NC(=O)[C@H](CC(C)C)NC(=O)[C@H](CO)NC(=O)[C@H](C(C)C)NC(=O)[C@H](Cc2ccc(O)cc2)NC(=O)[C@H](Cc2ccc(O)cc2)NC(=O)[C@H](CCC(N)=O)NC(=O)[C@H](Cc2c[nH]cn2)NC(=O)[C@H](Cc2ccc(O)cc2)NC(=O)CSC[C@@H](C(=O)NCC(N)=O)NC(=O)CNC1=O ({CH2CO}-YHQYYVSLYGNLGCG-NH2; thioether N-14)	10.4 nM
CC(C)C[C@@H]1NC(=O)[C@H](CO)NC(=O)CNC(=O)[C@H](Cc2ccc(O)cc2)NC(=O)[C@H](CC(C)C)NC(=O)[C@H](CO)NC(=O)[C@H](C(C)C)NC(=O)[C@H](Cc2ccc(O)cc2)NC(=O)[C@H](Cc2ccc(O)cc2)NC(=O)[C@H](CCC(N)=O)NC(=O)[C@H](Cc2c[nH]cn2)NC(=O)[C@H](Cc2ccc(O)cc2)NC(=O)CSC[C@@H](C(=O)NCC(N)=O)NC(=O)CNC1=O ({CH2CO}-YHQYYVSLYGSLGCG-NH2; thioether N-14)	8.1 nM
CC(C)C[C@@H]1NC(=O)[C@H](CO)NC(=O)CNC(=O)[C@H](Cc2ccc(O)cc2)NC(=O)[C@H](CC(C)C)NC(=O)[C@H](CO)NC(=O)[C@H](CCC(N)=O)NC(=O)[C@H](Cc2ccc(O)cc2)NC(=O)[C@H](Cc2ccc(O)cc2)NC(=O)[C@H](C(C)C)NC(=O)[C@H](Cc2c[nH]cn2)NC(=O)[C@H](Cc2ccc(O)cc2)NC(=O)CSC[C@@H](C(=O)NCC(N)=O)NC(=O)CNC1=O ({CH2CO}-YHVYYQSLYGSLGCG-NH2; thioether N-14)	7.9 nM
CC(C)C[C@@H]1NC(=O)[C@H](CO)NC(=O)[C@H](Cc2ccc(O)cc2)NC(=O)[C@H](Cc2ccc(O)cc2)NC(=O)[C@H](Cc2ccc(O)cc2)NC(=O)[C@H](C(C)C)NC(=O)[C@H](Cc2c[nH]cn2)NC(=O)[C@H](Cc2ccc(O)cc2)NC(=O)CSC[C@@H](C(=O)NCC(N)=O)NC(=O)CNC(=O)[C@H](CC(C)C)NC(=O)[C@@H]2CCCN2C(=O)CNC(=O)[C@H](Cc2ccc(O)cc2)NC1=O ({CH2CO}-YHVYYYSLYGPLGCG-NH2; thioether N-14)	9 nM
CC(C)C[C@@H]1NC(=O)[C@H](CO)NC(=O)CNC(=O)[C@H](Cc2ccc(O)cc2)NC(=O)[C@H](CC(C)C)NC(=O)[C@H](CO)NC(=O)[C@H](Cc2ccc(O)cc2)NC(=O)[C@H](Cc2ccc(O)cc2)NC(=O)[C@H](Cc2ccc(O)cc2)NC(=O)[C@H](C(C)C)NC(=O)[C@H](Cc2c[nH]cn2)NC(=O)[C@H](Cc2ccc(O)cc2)NC(=O)CSC[C@@H](C(=O)NCC(N)=O)NC(=O)CNC1=O ({CH2CO}-YHVYYYSLYGSLGCG-NH2; thioether N-14)	3.3 nM
CC[C@H](C)[C@@H]1NC(=O)[C@H](CO)NC(=O)[C@H](Cc2ccc(O)cc2)NC(=O)[C@H](Cc2ccc(O)cc2)NC(=O)[C@H]([C@@H](C)CC)NC(=O)[C@H](Cc2c[nH]cn2)NC(=O)[C@H](CC(N)=O)NC(=O)[C@H](Cc2ccccc2)NC(=O)[C@H](Cc2ccccc2)NC(=O)[C@H](CCC(N)=O)NC(=O)[C@H](CC(=O)O)NC(=O)[C@H]([C@@H](C)CC)NC(=O)[C@H](Cc2ccc(O)cc2)NC(=O)CSC[C@@H](C(=O)NCC(N)=O)NC1=O ({CH2CO}-YIDQFFNHIYYSICG-NH2; thioether N-14)	14700 nM
CC[C@H](C)[C@@H]1NC(=O)[C@H](CCCNC(=N)N)NC(=O)[C@H](Cc2ccc(O)cc2)NC(=O)[C@H](Cc2ccc(O)cc2)NC(=O)[C@H](Cc2c[nH]cn2)NC(=O)[C@H](CCC(N)=O)NC(=O)[C@H](Cc2ccc(O)cc2)NC(=O)CSC[C@@H](C(=O)NCC(N)=O)NC(=O)CNC(=O)[C@H](CC(C)C)NC(=O)[C@H](CCC(=O)O)NC(=O)CNC(=O)[C@H](Cc2ccc(O)cc2)NC(=O)[C@H](CC(C)C)NC1=O ({CH2CO}-YQHYYRILYGELGCG-NH2; thioether N-14)	> 30000 nM
CC[C@H](C)[C@@H]1NC(=O)[C@H](Cc2c[nH]c3ccccc23)NC(=O)[C@H](CC(N)=O)NC(=O)[C@H](Cc2ccc(O)cc2)NC(=O)[C@H](Cc2ccc(O)cc2)NC(=O)CSC[C@@H](C(=O)NCC(N)=O)NC(=O)[C@H](CO)NC(=O)[C@H]([C@@H](C)O)NC(=O)[C@H](CC(N)=O)NC(=O)[C@H](Cc2ccc(O)cc2)NC(=O)[C@H](Cc2ccc(O)cc2)NC(=O)[C@H](Cc2ccccc2)NC(=O)[C@H](Cc2c[nH]cn2)NC(=O)[C@H](CC(=O)O)NC1=O ({CH2CO}-YYNWIDHFYYNTSCG-NH2; thioether N-14)	> 30000 nM
CC(C)C[C@@H]1NC(=O)[C@H](C)NC(=O)[C@H](Cc2ccc(O)cc2)NC(=O)[C@H](Cc2ccc(O)cc2)NC(=O)[C@H](Cc2ccc(O)cc2)NC(=O)[C@H](CC(C)C)NC(=O)[C@H](Cc2ncc[nH]2)NC(=O)[C@H](Cc2ccc(O)cc2)NC(=O)CSC[C@@H](C(=O)NCC(N)=O)NC(=O)CNC(=O)[C@H](CC(C)C)NC(=O)[C@H](CC(N)=O)NC(=O)CNC(=O)[C@H](Cc2ccc(O)cc2)NC1=O ({CH2CO}-Y[Ala(imidazol-2-yl)]LYYYALYGNLGCG-NH2; thioether N-14)	11.8 nM

Results, then the compound that gave them:

IC50	Structure (SMILES)
5.4 nM	CC(C)C[C@@H]1NC(=O)[C@H](CO)NC(=O)CNC(=O)[C@H](Cc2ccc(O)cc2)NC(=O)[C@H](CC(C)C)NC(=O)[C@H](CO)NC(=O)[C@H](CCCNC(=N)N)NC(=O)[C@H](Cc2ccc(O)cc2)NC(=O)[C@H](Cc2ccc(O)cc2)NC(=O)[C@H](C(C)C)NC(=O)[C@H](Cc2cnc[nH]2)NC(=O)[C@H](Cc2ccc(O)cc2)NC(=O)CSC[C@@H](C(=O)NCC(N)=O)NC(=O)CNC1=O ({CH2CO}-YHVYYRSLYGSLGCG-NH2; thioether N-14)
> 30000 nM	CC[C@H](C)[C@@H]1NC(=O)[C@H](CO)NC(=O)[C@H](Cc2ccc(O)cc2)NC(=O)[C@H]([C@@H](C)CC)NC(=O)[C@H]([C@@H](C)O)NC(=O)[C@H](CC(C)C)NC(=O)[C@H](CC(=O)O)NC(=O)[C@H]([C@@H](C)CC)NC(=O)[C@H](C(C)C)NC(=O)[C@H](Cc2ccc(O)cc2)NC(=O)[C@H](CC(=O)O)NC(=O)[C@H](CCCCN)NC(=O)[C@H](Cc2ccc(O)cc2)NC(=O)CSC[C@@H](C(=O)NCC(N)=O)NC1=O ({CH2CO}-YKDYVIDLTIYSICG-NH2; thioether N-14)
> 30000 nM	CC(C)C[C@@H]1NC(=O)[C@H](CC(C)C)NC(=O)[C@H](CO)NC(=O)[C@H](CCC(=O)O)NC(=O)[C@H](CC(C)C)NC(=O)[C@H](Cc2ccc(O)cc2)NC(=O)CSC[C@@H](C(=O)NCC(N)=O)NC(=O)[C@H](Cc2ccc(O)cc2)NC(=O)[C@H](Cc2ccc(O)cc2)NC(=O)[C@H](CC(N)=O)NC(=O)[C@H](CC(N)=O)NC(=O)[C@H](CO)NC(=O)CNC1=O ({CH2CO}-YLESLLGSNNYYCG-NH2; thioether N-13)
> 30000 nM	CC[C@H](C)[C@@H]1NC(=O)[C@H](CCCNC(=N)N)NC(=O)[C@H](Cc2ccc(O)cc2)NC(=O)[C@H](Cc2ccc(O)cc2)NC(=O)[C@H](Cc2c[nH]cn2)NC(=O)[C@H](CCCNC(=N)N)NC(=O)[C@H](Cc2ccc(O)cc2)NC(=O)CSC[C@@H](C(=O)NCC(N)=O)NC(=O)CNC(=O)[C@H](CC(C)C)NC(=O)[C@H](CCC(=O)O)NC(=O)CNC(=O)[C@H](Cc2ccc(O)cc2)NC(=O)[C@H](CC(C)C)NC1=O ({CH2CO}-YRHYYRILYGELGCG-NH2; thioether N-14)
> 30000 nM	CC[C@H](C)[C@@H]1NC(=O)[C@@H]2CCCN2C(=O)[C@H](CCCNC(=N)N)NC(=O)[C@H](Cc2c[nH]c3ccccc23)NC(=O)[C@H](Cc2ccccc2)NC(=O)[C@H](CC(N)=O)NC(=O)[C@@H]2CCCN2C(=O)[C@H](Cc2ccccc2)NC(=O)[C@H](Cc2c[nH]c3ccccc23)NC(=O)[C@H](Cc2ccc(O)cc2)NC(=O)CSC[C@@H](C(=O)NCC(N)=O)NC(=O)[C@H](CC(N)=O)NC1=O ({CH2CO}-YWFPNFWRPINCG-NH2; thioether N-12)
